What all share (type): in vivo
One experiment relates to Oilseed Rape. The experiment in a line: Test C preemergence: oilseed rape. The following applies: 31 g ai/ha, scale 0 (no effect) to 100 (complete control).
The test system of experiment [1] is Russian thistle (Salsola iberica). The experiment in a line: Test D pre-/postemergence: Russian thistle. The following applies: Postemergence; for Plant response rating, Russian Thistle: 16 g ai/ha, scale 0 to 100. The gist of the method: (§1)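 Pre- and postemergence herbicide screen. Soil for pre: silt loam; post medium: peat moss, vermiculite, wetting agent, starter nutrients. Plant stage at post: 1- to 4-leaf. Readout: visual % control, 14–21 days.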

Experiment [2] concerns foxtail, giant (giant foxtail, Setaria faberii). The experiment in a line: Test F pre-/postemergence: foxtail, giant. The following applies: Preemergence. The gist of the method:
(§2)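 Preemergence treatment of seeds sown in silt loam soil, and postemergence treatment of plants 2–18 cm tall (1- to 4-leaf stage), with compounds in non-phytotoxic solvent plus surfactant. Greenhouse 14–21 days, then visual rating versus controls on 0–100 scale (100 = complete control).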

Experiment [3] has as its system pigweed (Amaranthus retroflexus). In words: Test D pre-/postemergence: pigweed. The gist of the method:
as §1

The subject of another experiment is kochia (Kochia scoparia). The experiment in a line: Test F pre-/postemergence: kochia. The following applies: Preemergence. The gist of the method:
as §2

Experiment [4] deals with barnyardgrass (Echinochloa crus-galli). The experiment in a line: Test F pre-/postemergence: barnyardgrass. The gist of the method: as §2
Experiment [5] concerns goosegrass (Eleusine indica). In words: Test F pre-/postemergence: goosegrass. The following applies: Preemergence. From the text:
(§3) Seeds of plant species selected from corn (Zea mays), soybean (Glycine max), velvetleaf (Abutilon theophrasti), lambsquarters (Chenopodium album), poinsettia, wild (wild poinsettia, Euphorbia heterophylla), pigweed, palmer (palmer pigweed, Amaranthus palmeri), waterhemp (common waterhemp, Amaranthus rudis), surinam grass (Brachiaria decumbens), crabgrass, Brazil (Brazilian crabgrass, Digitaria horizontalis), panicum, fall (fall panicum Panicum dichotomiflorum), crabgrass, large (large crabgrass, Digitaria sanguinalis), foxtail, giant (giant foxtail, Setaria faberii), foxtail, green (green foxtail Setaria viridis), goosegrass (Eleusine indica), ragweed (common ragweed, Ambrosia elatior), barnyardgrass (Echinochloa crus-galli), sandbur (southern sandbur, Cenchrus echinatus), arrowleaf sida (Sida rhombifolia), ryegrass, Italian (Italian ryegrass, Lolium multiflorum), dayflower, VA (Virginia (VA) dayflower, Commelina virginica), field bindweed (Convolvulus arvensis), cocklebur (common cocklebur, Xanthium strumarium), morningglory (Ipomoea coccinea), nightshade (eastern black nightshade, Solanum ptycanthum), kochia (Kochia scoparia), nutsedge, yellow (yellow nutsedge, Cyperus esculentus), johnsongrass (Sorghum halepense), smartweed (ladysthumb smartweed, Polygonum persicaria), and beggarticks (hairy beggarticks, Bidens pilosa), were planted into a silt loam soil and treated preemergence with test chemicals formulated in a non-phytotoxic solvent mixture which included a surfactant. At the same time, plants selected from these crop and weed species and also pigweed (Amaranthus retroflexus), waterhemp_RES1 (ALS/Triazine resistant common waterhemp, Amaranthus rudis) and waterhemp_RES2 (ALS/HPPD resistant common waterhemp, Amaranthus rudis) were planted in pots containing a planting medium comprising spaghnum peat moss, vermiculite, wetting agent and starter nutrients treated with postemergence applications of some of the test chemicals formulated in the same manner. Plants ranged in height from 2 to 18 cm for postemergence treatments (1- to 4-leaf stage).
(§4) Treated plants and controls were maintained in a greenhouse for 14 to 21 days, after which time all species were compared to controls and visually evaluated. Plant response ratings, summarized in Table E, are based on a scale of 0 to 100 where 0 is no effect and 100 is complete control. A dash (-) response means no test result.

For another experiment, the system named is corn (Zea mays). In words: Test F pre-/postemergence: corn. The gist of the method: as §2
The subject of experiment [6] is crabgrass, large (large crabgrass, Digitaria sanguinalis). The experiment in a line: Test F pre-/postemergence: crabgrass, large. The following applies: Preemergence.
Text: as §3, §4

Experiment [7] has as its system ragweed (common ragweed, Ambrosia elatior). The experiment in a line: Test F pre-/postemergence: ragweed. The following applies: Preemergence.
Text: as §3, §4

Where [8] appears, read: 31 g ai/ha, scale 0 to 100 (0 no effect, 100 complete control).
Setting [9] is: 62 g ai/ha, scale 0 to 100 (0 no effect, 100 complete control).
Where [10] appears, read: 125 g ai/ha, scale 0 to 100, 0 no effect, 100 complete control.
The mark [11] stands for this setting: 8 g ai/ha, scale 0 to 100, 0 no effect, 100 complete control.
Setting [12] is: 16 g ai/ha, scale 0 to 100, 0 no effect, 100 complete control.
Setting [13] is: 31 g ai/ha, scale 0 to 100, 0 no effect, 100 complete control.
Where [14] appears, read: Postemergence, 31 g ai/ha, scale 0 to 100 (0 no effect, 100 complete control).
Setting [15] is: Postemergence, 62 g ai/ha, scale 0 to 100 (0 no effect, 100 complete control).
The mark [16] stands for this setting: Postemergence, 125 g ai/ha, scale 0 to 100, 0 no effect, 100 complete control.
Where [17] appears, read: Postemergence, 16 g ai/ha, scale 0 to 100.
Where [18] appears, read: Preemergence, 16 g ai/ha, scale 0 to 100, 0 no effect, 100 complete control.
Where [19] appears, read: Preemergence, 31 g ai/ha, scale 0 to 100, 0 no effect, 100 complete control.
Setting [20] is: Preemergence, 62 g ai/ha, scale 0 to 100.
Setting [21] is: Preemergence, 125 g ai/ha, scale 0 to 100.
[22] abbreviates: Postemergence, 8 g ai/ha, scale 0 to 100.
Where [23] appears, read: Postemergence, 31 g ai/ha, scale 0 to 100.
[24] abbreviates: Postemergence, 62 g ai/ha, scale 0 to 100.
Setting [25] is: Postemergence, 125 g ai/ha, scale 0 to 100.
Where [26] appears, read: Preemergence, 8 g ai/ha, scale 0 to 100, 0 no effect, 100 complete control.
Setting [27] is: Preemergence, 250 g ai/ha, scale 0 to 100.

As for `CCc1nn(-c2ccc(C(F)(F)F)c(F)c2)nc1Oc1ccnc(C(F)(F)F)c1` [Compound 183], the “Plant response rating, Oilseed Rape” value in the experiment on Oilseed Rape was determined as 60.

As for `CCCc1nn(-c2ccc(C(F)(F)F)cc2)nc1Oc1ccnc(C(F)(F)F)c1` [Compound 170], the “Plant response rating, Oilseed Rape” value in the experiment with Oilseed Rape is 95.

Turning to `CCOc1nn(-c2ccc(F)cc2)nc1Cc1ccnc(C(F)(F)F)c1` [Compound 196, 4-[[5-ethoxy-2-(4-fluorophenyl)-2H-1,2,3-triazol-4-yl]methyl]-2-(trifluoromethyl)pyridine], the “Plant response rating: Russian Thistle” value in experiment [1] (setting [8]) is on record as 90; in experiment [1] (setting [9]), 80; in experiment [1] (setting [10]), 75. In addition, the “Plant response rating, Russian Thistle” value in [1] came to 80. For the same molecule, the “Plant response rating, Foxtail, Giant” value is 5 in experiment [2] (setting [11]); 85 in experiment [2] (setting [12]); 98 in experiment [2] (setting [13]); 98 in experiment [2] (62 g ai/ha, scale 0 to 100); 100 in experiment [2] (125 g ai/ha, scale 0 to 100). Further, the “Plant response rating: Pigweed” value in [3] (setting [14]) came out at 95; in experiment [3] (setting [15]), 95; in experiment [3] (setting [16]) it was 100. In addition, the “Plant response rating, Pigweed” value in experiment [3] (setting [17]) worked out at 85; in experiment [3] (setting [18]), 65; in experiment [3] (setting [19]), 100; in [3] (setting [20]) it was 100; in experiment [3] (setting [21]) it was 100. The “Plant response rating, Kochia” value in the experiment on kochia (Kochia scoparia) (setting [11]) was 5; in the experiment with kochia (Kochia scoparia) (setting [12]), 5; in the experiment on kochia (Kochia scoparia) (setting [13]), 10; in the experiment with kochia (Kochia scoparia) (62 g ai/ha, scale 0 to 100), 100; in the experiment on kochia (Kochia scoparia) (125 g ai/ha, scale 0 to 100) it was 100. For the same molecule, the “Plant response rating, Barnyardgrass” value in experiment [4] (setting [22]) is listed as 30; in experiment [4] (setting [17]), 40; in experiment [4] (setting [23]) it was 60; in [4] (setting [24]) it was 60; in [4] (setting [25]), 90; in experiment [4] (setting [26]) it was 0. Also, the “Plant response rating, Barnyardgrass” value in [4] (setting [18]) was determined as 25; in experiment [4] (setting [19]) it was 40; in experiment [4] (setting [20]), 70; in [4] (setting [21]), 100. Also, the “Plant response rating, Goosegrass” value in [5] (setting [11]) worked out at 40; in experiment [5] (setting [12]) it was 60; in [5] (setting [13]), 75; in experiment [5] (62 g ai/ha, scale 0 to 100), 100; in experiment [5] (125 g ai/ha, scale 0 to 100), 100. Besides, the “Plant response rating, Corn” value is on record as 15 with corn (Zea mays) (setting [22]); 15 in the experiment with corn (Zea mays) (setting [17]); 20 in the experiment with corn (Zea mays) (setting [23]); 20 with corn (Zea mays) (setting [24]); 25 in the experiment on corn (Zea mays) (setting [25]); 0 with corn (Zea mays) (setting [26]). For the same molecule, the “Plant response rating, Corn” value with corn (Zea mays) (setting [18]) is 0; with corn (Zea mays) (setting [19]), 0; in the experiment with corn (Zea mays) (setting [20]), 5; in the experiment on corn (Zea mays) (setting [21]), 30. The “Plant response rating, Crabgrass, Large” value stood at 75 in experiment [6] (setting [12]); 100 in experiment [6] (setting [13]); 100 in experiment [6] (62 g ai/ha, scale 0 to 100); 100 in experiment [6] (125 g ai/ha, scale 0 to 100). Further, the “Plant response rating, Ragweed” value in [7] (setting [11]) was found to be 0; in experiment [7] (setting [12]), 0; in [7] (setting [13]), 0; in experiment [7] (125 g ai/ha, scale 0 to 100) it was 50.

In the case of `Cc1nn(-c2ccc(C(F)(F)F)c(F)c2)nc1Oc1ccnc(C(F)(F)F)c1` [Compound 148], the “Plant response rating: Russian Thistle” value in experiment [1] (setting [8]) is listed as 75; in experiment [1] (setting [9]), 85; in experiment [1] (setting [10]) it was 75. In addition, the “Plant response rating, Russian Thistle” value in experiment [1] is reported as 65. For the same molecule, the “Plant response rating, Foxtail, Giant” value is on record as 25 in experiment [2] (setting [12]); 95 in experiment [2] (setting [13]); 100 in experiment [2] (62 g ai/ha, scale 0 to 100); 100 in experiment [2] (125 g ai/ha, scale 0 to 100); 100 in [2] (250 g ai/ha, scale 0 to 100). Also, the “Plant response rating: Pigweed” value is recorded as 85 in [3] (setting [14]), 95 in experiment [3] (setting [15]) and 95 in [3] (setting [16]). Also, the “Plant response rating, Pigweed” value in experiment [3] (setting [17]) came out at 70; in experiment [3] (setting [18]), 15; in [3] (setting [19]), 70; in experiment [3] (setting [20]), 85; in experiment [3] (setting [21]) it was 100. Further, the “Plant response rating, Kochia” value with kochia (Kochia scoparia) (setting [12]) came to 0; in the experiment with kochia (Kochia scoparia) (setting [13]), 90; in the experiment on kochia (Kochia scoparia) (62 g ai/ha, scale 0 to 100), 90; in the experiment with kochia (Kochia scoparia) (125 g ai/ha, scale 0 to 100), 95; in the experiment on kochia (Kochia scoparia) (250 g ai/ha, scale 0 to 100), 98. Moreover, the “Plant response rating, Barnyardgrass” value in [4] (setting [18]) is listed as 0; in experiment [4] (setting [19]), 0; in [4] (setting [20]), 0; in experiment [4] (setting [21]) it was 20; in experiment [4] (setting [27]), 98. The “Plant response rating, Goosegrass” value was 25 in experiment [5] (setting [12]); 98 in experiment [5] (setting [13]); 100 in [5] (62 g ai/ha, scale 0 to 100); 100 in experiment [5] (125 g ai/ha, scale 0 to 100); 100 in experiment [5] (250 g ai/ha, scale 0 to 100). The “Plant response rating, Corn” value in the experiment with corn (Zea mays) (setting [18]) was 0; in the experiment on corn (Zea mays) (setting [19]), 0; in the experiment on corn (Zea mays) (setting [20]) it was 0; in the experiment with corn (Zea mays) (setting [21]), 0; with corn (Zea mays) (setting [27]), 5. Moreover, the “Plant response rating, Crabgrass, Large” value is given as 95 in experiment [6] (setting [12]); 100 in experiment [6] (setting [13]); 100 in [6] (62 g ai/ha, scale 0 to 100); 100 in experiment [6] (125 g ai/ha, scale 0 to 100); 100 in [6] (250 g ai/ha, scale 0 to 100). In addition, the “Plant response rating, Ragweed” value in [7] (setting [12]) was found to be 0; in experiment [7] (setting [13]), 0; in [7] (125 g ai/ha, scale 0 to 100), 75; in experiment [7] (250 g ai/ha, scale 0 to 100), 75.

Turning to `CCOc1nn(-c2ccc(C(F)(F)F)cc2)nc1Cc1ccnc(C(F)(F)F)c1` [Compound 164, 4-[[5-ethoxy-2-[4-(trifluoromethyl)phenyl]-2H-1,2,3-triazol-4-yl]methyl]-2-(trifluoromethyl)pyridine], in the experiment with Oilseed Rape, the “Plant response rating, Oilseed Rape” value came out at 5.

Take `CCCc1nn(-c2ccc(F)cc2F)nc1Oc1ccnc(C(F)(F)F)c1` [Compound 179]: the “Plant response rating, Oilseed Rape” value in the experiment with Oilseed Rape is 80.

`CCCc1nn(-c2ccc(F)cc2)nc1Oc1ccnc(C(F)(F)F)c1` [Compound 168]: in the experiment with Oilseed Rape, the “Plant response rating, Oilseed Rape” value worked out at 100.

Source of the values: patent publication US9302999B2, “Substituted triazoles as herbicides” (E. I. DU PONT DE NEMOURS AND COMPANY, priority 2012, dated 2016).
